From ChEMBL document CHEMBL1144555, “Chemoenzymatic synthesis and antimicrobial activity evaluation of monoglucosyl diglycerides” (2007) come the findings set out here.

Structures are written as SMILES. Values after ≈ are worked out from the molar mass of the structure shown. Bounds are passed on as bounds.

Type in all cases: functional
The test system of test [1] is Mycobacterium tuberculosis. The test can be described thus: Antimicrobial activity against Mycobacterium tuberculosis H37Rv.
In test [2] the test system is Kluyveromyces marxianus. The test can be described thus: Antimicrobial activity against Candida pseudotropicalis.
Test [3] deals with Staphylococcus aureus. In words: Antimicrobial activity against Staphylococcus aureus 85.
Test [4] has as its system Escherichia coli. The test can be described thus: Antimicrobial activity against Escherichia coli ATCC 25922.
Test [5] deals with Mycobacterium tuberculosis. In words: Antimicrobial activity against Mycobacterium tuberculosis H160.
Test [6] relates to Mycobacterium tuberculosis. The test can be described thus: Antimicrobial activity against Mycobacterium tuberculosis H190.
Test [7] concerns Enterococcus faecalis. In words: Antimicrobial activity against Enterococcus faecalis ATCC 29212.
In test [8] the test system is Bacillus subtilis. The test can be described thus: Antimicrobial activity against Bacillus subtilis ATCC 6633.
Test [9] has as its system Staphylococcus aureus. In words: Antimicrobial activity against Staphylococcus aureus ATCC 105487.
The subject of test [10] is Staphylococcus aureus. The test can be described thus: Antimicrobial activity against Staphylococcus aureus 52.
Test [11] concerns Pseudomonas aeruginosa. The test can be described thus: Antimicrobial activity against Pseudomonas aeruginosa ATCC 27753.
In test [12] the test system is Candida albicans. In words: Antimicrobial activity against Candida albicans.
The subject of test [13] is Staphylococcus aureus. In words: Antimicrobial activity against Staphylococcus aureus ATCC 25923.
The subject of test [14] is Staphylococcus aureus. The test can be described thus: Antimicrobial activity against Staphylococcus aureus 87.

The MIC is the least concentration at which growth counts as inhibited. A higher MIC goes with weaker potency. In the case of `CC/C=C/C/C=C/C/C=C/CCCCCCCC(=O)OCC(CO[C@@H]1O[C@H](CO)[C@@H](O)[C@H](O)[C@H]1O)OC(=O)CCCCCCC/C=C/C/C=C/C/C=C/CC` (stereo not given in full), the minimal inhibitory concentration (MIC) in [1], in [2], in [3], in [4], in test [5] and in [6] was more than 128 µg/mL throughout. In addition, the MIC in test [7], in test [8], in test [9], in test [10], in test [11] and in test [12] was more than 128 µg/mL each time. For the same compound, the MIC in test [13] and in test [14] was more than 128 µg/mL throughout.

As for `O=C(O)c1cn(C2CC2)c2cc(N3CCNCC3)c(F)cc2c1=O` [CIPROFLOXACIN], the MIC in test [1] amounted to 0.5 µg/mL (≈ 1.51 µM); in test [3] it was 0.5 µg/mL (≈ 1.51 µM); in [5], 0.5 µg/mL (≈ 1.51 µM); in [6], 0.5 µg/mL (≈ 1.51 µM); in test [7], 1 µg/mL (≈ 3.02 µM); in test [8] it was 0.25 µg/mL (≈ 0.754 µM). In addition, the MIC was 0.25 µg/mL (≈ 0.754 µM) in test [9]; more than 4 µg/mL in [10]; 1 µg/mL (≈ 3.02 µM) in test [11]; 0.5 µg/mL (≈ 1.51 µM) in test [13]; 0.5 µg/mL (≈ 1.51 µM) in [14].

As for `CCCCCCCCCCCCCC(=O)OCC(CO[C@@H]1O[C@H](CO)[C@@H](O)[C@H](O)[C@H]1O)OC(=O)CCCCCCCCCCCCC` (stereo not given in full), the minimal inhibitory concentration (MIC) in test [1], in test [2], in test [3], in test [4], in test [5] and in test [6] was more than 128 µg/mL in each case. The MIC in test [7], in [8], in test [9], in test [10], in test [11] and in test [12] was more than 128 µg/mL in each case. Moreover, the MIC in [13] and in test [14] was more than 128 µg/mL throughout.

Take `CCCCC/C=C/C/C=C/CCCCCCCC(=O)OC(COC(=O)CCCCCCC)CO[C@@H]1O[C@H](CO)[C@@H](O)[C@H](O)[C@H]1O` (mixture of isomers): the MIC in test [1] is 64 µg/mL; in test [2], more than 128 µg/mL; in [3] it was more than 128 µg/mL; in [4], more than 128 µg/mL; in [5], 128 µg/mL; in [6], 64 µg/mL. Further, the MIC in test [7] was more than 128 µg/mL; in [8], 128 µg/mL; in test [9] it was more than 128 µg/mL; in test [10], more than 128 µg/mL; in test [11], more than 128 µg/mL; in test [12] it was more than 128 µg/mL. The MIC is more than 128 µg/mL in test [13] and 64 µg/mL in test [14].

`Clc1ccc(COC(Cn2ccnc2)c2ccc(Cl)cc2Cl)c(Cl)c1` (stereo not given) [MICONAZOLE]: the minimum inhibitory concentration (MIC) was 0.5 µg/mL (≈ 1.2 µM) in test [2] and 8 µg/mL (≈ 19.2 µM) in test [12].

For `CCCCCCCCCCCCCCCCCC(=O)OCC(CO[C@@H]1O[C@H](CO)[C@@H](O)[C@H](O)[C@H]1O)OC(=O)CCCCCCCCCCCCCCCCC` (mixture of isomers), the MIC in [1], in test [2], in test [3], in test [4], in [5] and in test [6] was more than 128 µg/mL each time. For the same compound, the MIC in test [7], in test [8], in test [9], in [10], in test [11] and in test [12] was more than 128 µg/mL each time. Besides, the MIC in [13] and in [14] was more than 128 µg/mL each time.

In the case of `CCCCCCCCCC(=O)OCC(CO[C@@H]1O[C@H](CO)[C@@H](O)[C@H](O)[C@H]1O)OC(=O)CCCCCCCCC` (mixture of isomers), the MIC in [1] is 128 µg/mL; in test [2] it was more than 128 µg/mL; in [3], more than 128 µg/mL; in test [4] it was more than 128 µg/mL; in test [5], 64 µg/mL; in test [6], 64 µg/mL. The MIC in [7], in test [8], in test [9], in [10], in [11] and in test [12] was more than 128 µg/mL each time. The figures for the MIC in test [13] and in test [14] were more than 128 µg/mL and 64 µg/mL, respectively.

Consider `CCCCC/C=C/C/C=C/CCCCCCCC(=O)OC(COC(=O)CCCCCCCCC)CO[C@@H]1O[C@H](CO)[C@@H](O)[C@H](O)[C@H]1O` (mixture of isomers), for which the MIC is more than 128 µg/mL in test [1]; more than 128 µg/mL in test [2]; 32 µg/mL in test [3]; more than 128 µg/mL in [4]; more than 128 µg/mL in test [5]; more than 128 µg/mL in test [6]. In addition, the minimal inhibitory concentration (MIC) is 64 µg/mL in [7]; 128 µg/mL in [8]; 32 µg/mL in [9]; more than 128 µg/mL in test [10]; more than 128 µg/mL in [11]; more than 128 µg/mL in test [12]. Besides, the values for the MIC in test [13] and in test [14] were more than 128 µg/mL and more than 32 µg/mL, respectively.

As for `CC/C=C/C/C=C/C/C=C/CCCCCCCC(=O)OC(COC(=O)CCCCCCC)CO[C@@H]1O[C@H](CO)[C@@H](O)[C@H](O)[C@H]1O` (mixture of isomers), the MIC in [1] was 64 µg/mL; in test [2], more than 128 µg/mL; in [3], more than 128 µg/mL; in [4] it was more than 128 µg/mL; in test [5], 128 µg/mL; in test [6], 64 µg/mL. The MIC is more than 128 µg/mL in test [7]; 128 µg/mL in test [8]; more than 128 µg/mL in test [9]; more than 128 µg/mL in [10]; more than 128 µg/mL in [11]; more than 128 µg/mL in [12]. In addition, the figures for the MIC in [13] and in test [14] were more than 128 µg/mL and 64 µg/mL, respectively.

In the case of `CCCCCCCC/C=C/CCCCCCCC(=O)OC(COC(=O)CCCCCCCCC)CO[C@@H]1O[C@H](CO)[C@@H](O)[C@H](O)[C@H]1O` (mixture of isomers), the MIC in test [1] is more than 128 µg/mL; in [2], more than 128 µg/mL; in test [3], 128 µg/mL; in test [4] it was more than 128 µg/mL; in test [5] it was more than 128 µg/mL; in test [6], more than 128 µg/mL. The minimum inhibitory concentration (MIC) in [7] is more than 128 µg/mL; in test [8], 32 µg/mL; in [9], more than 128 µg/mL; in test [10], more than 128 µg/mL; in test [11], more than 128 µg/mL; in [12], more than 128 µg/mL. For the same compound, the MIC in test [13] was 8 µg/mL; in [14], more than 128 µg/mL.

With `CCCCCCCC/C=C/CCCCCCCC(=O)OCC(CO[C@@H]1O[C@H](CO)[C@@H](O)[C@H](O)[C@H]1O)OC(=O)CCCCCCC/C=C/CCCCCCCC` (mixture of isomers), the minimal inhibitory concentration (MIC) in [1], in [2], in test [3], in test [4], in test [5] and in [6] was more than 128 µg/mL each time. The MIC in [7], in test [8], in test [9], in [10], in [11] and in [12] was more than 128 µg/mL in each case. Also, the MIC in [13] and in [14] was more than 128 µg/mL each time.

Regarding `CCCCCCCC/C=C/CCCCCCCC(=O)OC(COC(=O)CCCCCCC)CO[C@@H]1O[C@H](CO)[C@@H](O)[C@H](O)[C@H]1O` (mixture of isomers), the MIC in test [1] was 64 µg/mL; in [2] it was more than 128 µg/mL; in test [3] it was more than 128 µg/mL; in test [4] it was more than 128 µg/mL; in test [5], 64 µg/mL; in test [6] it was 64 µg/mL. Further, the MIC is more than 128 µg/mL in test [7]; 128 µg/mL in test [8]; more than 128 µg/mL in test [9]; more than 128 µg/mL in [10]; more than 128 µg/mL in test [11]; more than 128 µg/mL in [12]. The results for the minimum inhibitory concentration (MIC) in test [13] and in test [14] were more than 128 µg/mL and 64 µg/mL, respectively.

Take `CC/C=C/C/C=C/C/C=C/CCCCCCCC(=O)OC(COC(=O)CCCCCCCCC)CO[C@@H]1O[C@H](CO)[C@@H](O)[C@H](O)[C@H]1O` (mixture of isomers): the MIC in test [1] is more than 128 µg/mL; in test [2] it was more than 128 µg/mL; in [3], 64 µg/mL; in test [4] it was more than 128 µg/mL; in test [5], more than 128 µg/mL; in test [6], more than 128 µg/mL. In addition, the MIC in test [7], in [8], in [9], in test [10], in test [11] and in [12] was more than 128 µg/mL each time. Moreover, the MIC in test [13] was more than 128 µg/mL; in [14], 32 µg/mL.

On to `CCCCCCCCCCCC(=O)OCC(CO[C@@H]1O[C@H](CO)[C@@H](O)[C@H](O)[C@H]1O)OC(=O)CCCCCCCCCCC` (mixture of isomers), for which the MIC in [1], in [2], in [3], in [4], in test [5] and in [6] was more than 128 µg/mL each time. The MIC in test [7], in test [8], in [9], in test [10], in [11] and in test [12] was more than 128 µg/mL throughout. Moreover, the MIC in test [13] and in test [14] was more than 128 µg/mL each time.

With `CCCCC/C=C/C/C=C/CCCCCCCC(=O)OCC(CO[C@@H]1O[C@H](CO)[C@@H](O)[C@H](O)[C@H]1O)OC(=O)CCCCCCC/C=C/C/C=C/CCCCC` (mixture of isomers), the MIC in test [1] was 64 µg/mL; in [2], more than 128 µg/mL; in test [3], more than 128 µg/mL; in test [4], more than 128 µg/mL; in test [5] it was 64 µg/mL; in test [6], 128 µg/mL. Also, the MIC in test [7] is more than 128 µg/mL; in [8] it was 128 µg/mL; in test [9], more than 128 µg/mL; in [10], more than 128 µg/mL; in test [11] it was more than 128 µg/mL; in [12] it was more than 128 µg/mL. Also, the MIC in test [13] was more than 128 µg/mL; in [14] it was 64 µg/mL.
